Laboratory results published in US20210024545A1, “SUBSTITUTED DIAZAHETERO-BICYCLIC COMPOUNDS AND THEIR USE” (Bayer Aktiengesellschaft, priority 2016, published 2021).

Legend:
[1] = biological target: human TASK-1 (Homo sapiens, UniProt O14649); assay: Inhibition of recombinant TASK-1 in stably transfected CHO cells, KCl-induced depolarization, voltage-sensitive dye (B-2); assay type: cell-based; design: expressed in transfected cells; host or cells: stably transfected CHO cells; settings: depolarization induced by 40 mM potassium chloride, some mean values from multiple determinations
Description: (§1) B-2. Inhibition of Recombinant TASK-1 and TASK-3 In Vitro
(§2) The investigations on the inhibition of the recombinant TASK-1 and TASK-3 channels were conducted using stably transfected CHO cells. The compounds of the invention were tested here with administration of 40 mM of potassium chloride in the presence of a voltage-sensitive dye using the method described in detail in the following references [Whiteaker et al., Validation of FLIPR membrane potential dye for high-throughput screening of potassium channel modulators, J. Biomol. Screen. 6 (5), 305-312 (2001); Molecular Devices FLIPR Application Note: Measuring membrane potential using the FLIPR® membrane potential assay kit on Fluorometric Imaging Plate Reader (FLIPR®) systems, http://www.moleculardevices.com/reagents-supplies/assay-kits/ion-channels/flipr-membrane-potential-assay-kits]. The activity of the test substances was determined as their ability to inhibit a depolarization induced in the recombinant cells by 40 mM potassium chloride. The concentration which can block half of this depolarization is referred to as IC50).
(§3) Table 2 below lists the IC50 values from this assay determined for individual working examples of the invention (some as mean values from multiple independent individual determinations): […]

[2] = biological target: human TASK-3 (Homo sapiens, UniProt Q9NPC2); assay: Inhibition of recombinant TASK-3 in stably transfected CHO cells, KCl-induced depolarization, voltage-sensitive dye (B-2); assay type: cell-based; design: expressed in transfected cells; host or cells: stably transfected CHO cells; settings: depolarization induced by 40 mM potassium chloride, some mean values from multiple determinations
Description: as §1, §2, §3

Chain of human TASK-1 (O14649 whole entry): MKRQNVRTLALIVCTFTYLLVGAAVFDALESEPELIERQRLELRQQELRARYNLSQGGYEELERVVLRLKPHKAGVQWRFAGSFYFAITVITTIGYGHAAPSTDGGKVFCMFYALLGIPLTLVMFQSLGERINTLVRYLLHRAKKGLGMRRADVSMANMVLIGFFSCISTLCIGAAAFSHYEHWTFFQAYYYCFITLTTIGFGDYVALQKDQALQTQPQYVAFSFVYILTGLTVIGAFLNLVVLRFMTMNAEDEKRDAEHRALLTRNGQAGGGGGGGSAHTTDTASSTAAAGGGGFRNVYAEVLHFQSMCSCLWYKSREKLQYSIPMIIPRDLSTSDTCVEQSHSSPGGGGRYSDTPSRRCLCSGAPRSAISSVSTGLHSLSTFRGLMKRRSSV
Chain of human TASK-3 (Q9NPC2 whole entry): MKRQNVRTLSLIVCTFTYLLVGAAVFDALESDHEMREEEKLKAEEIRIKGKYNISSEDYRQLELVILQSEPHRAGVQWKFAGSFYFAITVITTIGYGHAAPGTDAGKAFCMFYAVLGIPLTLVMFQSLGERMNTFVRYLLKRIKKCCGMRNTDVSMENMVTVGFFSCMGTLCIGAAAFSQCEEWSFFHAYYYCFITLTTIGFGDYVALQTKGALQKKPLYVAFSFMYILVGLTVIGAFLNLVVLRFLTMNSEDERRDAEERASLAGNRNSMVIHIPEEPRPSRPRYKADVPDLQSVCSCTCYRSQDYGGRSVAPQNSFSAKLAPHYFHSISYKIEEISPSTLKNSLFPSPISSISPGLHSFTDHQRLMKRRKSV

Row | SMILES | IC50 [1] [nM] | IC50 [2] [nM]
1 | COc1cccc(C(=O)N2C3COCC2CN(Cc2c(-c4ccc(Cl)cc4)nc4ccccn24)C3)c1 [Example 70] | 1900 | 160
2 | O=C(C1CCCC1)N1C2COCC1CN(Cc1c(-c3ccc(Cl)cc3)nc3ccccn13)C2 [Example 71] | 130 | 24
3 | O=C(c1cccc(OC(F)(F)F)c1)N1C2COCC1CN(Cc1c(-c3ccc(Cl)cc3)nc3ccccn13)C2 [Example 72] | 2000 | 120
4 | CC(C)c1ccccc1C(=O)N1C2COCC1CN(Cc1c(-c3ccc(Cl)cc3)nc3ccccn13)C2 [Example 73] | 160 | 9.6
5 | COc1ccc(Cl)c(C(=O)N2C3COCC2CN(Cc2c(-c4ccc(Cl)cc4)nc4ccccn24)C3)c1 [Example 74] | 330 | 23
6 | COc1ccc(F)cc1C(=O)N1C2COCC1CN(Cc1c(-c3ccc(Cl)cc3)nc3ccccn13)C2 [Example 75] | 380 | 30
7 | CC(C)c1cccc(C(=O)N2C3COCC2CN(Cc2c(-c4ccc(Cl)cc4)nc4ccccn24)C3)c1 [Example 76] | 240 | 14
8 | O=C(c1cccc(OCC(F)(F)F)n1)N1C2COCC1CN(Cc1c(-c3ccc(Cl)cc3)nc3ccccn13)C2 [Example 77] | 810 | 44
9 | O=C(C1CCOC1)N1C2COCC1CN(Cc1c(-c3ccc(Cl)cc3)nc3ccccn13)C2 (centres unmarked) [Example 78] | 1600 | 65
10 | O=C(c1cccc(Cl)c1)N1C2COCC1CN(Cc1c(-c3ccc(Cl)cc3)nc3ccccn13)C2 [Example 79] | 1000 | 190
11 | O=C(c1cccc(OC(F)(F)F)n1)N1C2COCC1CN(Cc1c(-c3ccc(Cl)cc3)nc3ccccn13)C2 [Example 80] | 310 | 15
12 | COc1ccc(C)c(C(=O)N2C3COCC2CN(Cc2c(-c4ccc(Cl)cc4)nc4ccccn24)C3)n1 [Example 81] | 520 | 25
13 | O=C(c1ccccc1F)N1CC2CCC(C1)N2Cc1c(-c2ccc(Br)cc2)nc2ccccn12 [Example 82] | 230 | 420
14 | COc1cccc(C(=O)N2CC3CCC(C2)N3Cc2c(-c3ccc(Br)cc3)nc3ccccn23)n1 [Example 83] | 134 | 14
15 | COc1cccc(C(=O)N2CC3CCC(C2)N3Cc2c(-c3ccc(Br)cc3)nc3ccccn23)c1 [Example 84] | 1100 | 400
16 | O=C(C1CCCC1)N1CC2CCC(C1)N2Cc1c(-c2ccc(Br)cc2)nc2ccccn12 [Example 85] | 520 | 53
17 | O=C(c1ccccc1F)N1CC2CCC(C1)N2Cc1c(-c2ccc(Cl)cc2)nc2ccccn12 [Example 87] | 583 | 160
18 | Cc1ccc(F)cc1C(=O)N1CC2CCC(C1)N2Cc1c(-c2ccc(Cl)cc2)nc2ccccn12 [Example 88] | 766 | 210
19 | COc1ccc(F)cc1C(=O)N1CC2CCC(C1)N2Cc1c(-c2ccc(Cl)cc2)nc2ccccn12 [Example 89] | 827 | 220
20 | Cc1ccccc1C(=O)N1CC2CCC(C1)N2Cc1c(-c2ccc(Cl)cc2)nc2ccccn12 [Example 90] | 958 | 79
21 | COc1ccccc1C(=O)N1CC2CCC(C1)N2Cc1c(-c2ccc(Cl)cc2)nc2ccccn12 [Example 91] | 1350 | 89
22 | O=C(C1CCCCC1)N1CC2CCC(C1)N2Cc1c(-c2ccc(Cl)cc2)nc2ccccn12 [Example 93] | 2300 | 510
23 | CC(C)c1ccc(-c2nc3ccccn3c2CN2C3CCC2CN(C(=O)c2ccccc2F)C3)cc1 [Example 94] | 530 | 130
24 | COc1cccc(C(=O)N2CC3CCC(C2)N3Cc2c(-c3ccc(C(C)C)cc3)nc3ccccn23)n1 [Example 95] | 1700 | 350
25 | O=C(C1CCCC1)N1C2CCC1CN(Cc1c(-c3ccc(Br)cc3)nc3ccccn13)C2 [Example 96] | 240 | 4.5
26 | O=C(c1ccccc1F)N1C2CCC1CN(Cc1c(-c3ccc(Br)cc3)nc3ccccn13)C2 [Example 97] | 390 | 7.8

Row | SMILES | IC50 [1] [nM] | IC50 [2] [nM]
27 | COc1cccc(C(=O)N2C3CCC2CN(Cc2c(-c4ccc(Br)cc4)nc4ccccn24)C3)n1 [Example 98] | 450 | 14
28 | COc1cccc(C(=O)N2C3CCC2CN(Cc2c(-c4ccc(Br)cc4)nc4ccccn24)C3)c1 [Example 99] | 470 | 16
29 | Cc1ccccc1C(=O)N1C2CCC1CN(Cc1c(-c3ccc(Cl)cc3)nc3ccccn13)C2 [Example 100] | 250 | 17
30 | O=C(C1CCC1)N1C2CCC1CN(Cc1c(-c3ccc(Cl)cc3)nc3ccccn13)C2 [Example 101] | 370 | 7.2
31 | COc1ccc(F)cc1C(=O)N1C2CCC1CN(Cc1c(-c3ccc(Cl)cc3)nc3ccccn13)C2 [Example 103] | 540 | 20
32 | O=C(C1CCCCC1)N1C2CCC1CN(Cc1c(-c3ccc(Cl)cc3)nc3ccccn13)C2 [Example 105] | 830 | 20
33 | O=C(c1cc(F)ccc1Cl)N1C2CCC1CN(Cc1c(-c3ccc(Cl)cc3)nc3ccccn13)C2 [Example 106] | 870 | 110
34 | Cc1ccc(F)cc1C(=O)N1C2CCC1CN(Cc1c(-c3ccc(Cl)cc3)nc3ccccn13)C2 [Example 107] | 1000 | 33
35 | COc1cccc(C(=O)N2C3CCC2CN(Cc2c(-c4ccc(Cl)cc4)nc4ccccn24)C3)c1 [Example 108] | 1100 | 95
36 | COc1ccccc1C(=O)N1C2CCC1CN(Cc1c(-c3ccc(Cl)cc3)nc3ccccn13)C2 [Example 109] | 693 | 92
37 | CC(C)c1ccc(-c2nc3ccccn3c2CN2CC3CCC(C2)N3C(=O)c2ccccc2F)cc1 [Example 110] | 780 | 300
38 | O=C(c1ccccc1F)N1C2CCC1CN(Cc1c(-c3ccc(Cl)cn3)nc3ccccn13)C2 [Example 111] | 110 | 25
39 | COc1cccc(C(=O)N2C3CCC2CN(Cc2c(-c4ccc(Cl)cn4)nc4ccccn24)C3)c1 [Example 112] | 200 | 29
40 | O=C(C1CCCC1)N1C2CCC1CN(Cc1c(-c3ccc(Cl)cn3)nc3ccccn13)C2 [Example 113] | 89 | 21
41 | O=C(c1cccc(Cl)c1)N1C2CC1CN(Cc1c(-c3ccc(Cl)cc3)nc3ccccn13)C2 [Example 114] | 480 | 340
42 | O=C(C1CCCC1)N1C2CC1CN(Cc1c(-c3ccc(Cl)cc3)nc3ccccn13)C2 [Example 116] | 535 | 340
43 | O=C(c1ccccc1F)N1C2CC1CN(Cc1c(-c3ccc(Cl)cc3)nc3ccccn13)C2 [Example 117] | 635 | 520
44 | O=C(C1CCCCC1)N1C2CC1CN(Cc1c(-c3ccc(Cl)cc3)nc3ccccn13)C2 [Example 118] | 860 | 1000
45 | O=C(c1cc(F)ccc1Cl)N1C2CC1CN(Cc1c(-c3ccc(Cl)cc3)nc3ccccn13)C2 [Example 119] | 1100 | 1500
46 | O=C(c1cccc(OC(F)(F)F)c1)N1C2CC1CN(Cc1c(-c3ccc(Cl)cc3)nc3ccccn13)C2 [Example 120] | 1100 | 180
47 | O=C(C1CCC1)N1C2CC1CN(Cc1c(-c3ccc(Cl)cc3)nc3ccccn13)C2 [Example 121] | 1700 | 2800
48 | CCOc1cccc(C(=O)N2C3CC2CN(Cc2c(-c4ccc(Cl)cc4)nc4ccccn24)C3)c1 [Example 122] | 1100 | 120
49 | CC(C)c1ccc(-c2nc3ccccn3c2CN2CC3CC(C2)N3C(=O)C2CCCC2)cc1 [Example 123] | 2000 | 1600
50 | O=C(c1cccc(OC(F)(F)F)n1)N1C2COCC1CN(Cc1c(-c3ccc(Cl)cn3)nc3ccccn13)C2 [Example 135, (7-{[2-(5-Chloropyridin-2-yl)imidazo[1,2-a]pyridin-3-yl]methyl}-3-oxa-7,9-diazabicyclo[3.3.1]non-9-yl)[6-(trifluoromethoxy)pyridin-2-yl]methanone] | 4100 | 160
51 | COc1ccc(Cl)c(C(=O)N2C3COCC2CN(Cc2c(-c4ccc(Cl)cn4)nc4ccccn24)C3)n1 [Example 136, (3-Chloro-6-methoxypyridin-2-yl)(7-{[2-(5-chloropyridin-2-yl)imidazo[1,2-a]pyridin-3-yl]methyl}-3-oxa-7,9-diazabicyclo[3.3.1]non-9-yl)methanone] | 9300 | 44
52 | COc1ccc(Cl)c(C(=O)N2C3CCC2CN(Cc2c(-c4ccc(Br)cc4)nc4ccccn24)C3)n1 [Example 139, (3-{[2-(4-Bromophenyl)imidazo[1,2-a]pyridin-3-yl]methyl}-3,8-diazabicyclo[3.2.1]oct-8-yl)(3-chloro-6-methoxypyridin-2-yl)methanone] | 290 | 18
